≈ marks a conversion by molar mass, not a printed value.
Legend:
[1] = molecular target: Mouse cGAS (Mus musculus, UniProt Q8C6L5); assay: cGAS enzymatic assay with mouse cGAS; format: biochemical
Method: Biochemical and biophysical analysis: Potency and MOA studies, including Mn^2+ sensitivity, are performed using the cGAS enzymatic assay. Dose response experiments are used to determine IC50 values under basal conditions (5 mM MgCl2, 100 μM ATP/GTP), and with the addition of physiological levels of Mn (0.2 mM) using human and mouse cGAS. Ligand optimization is driven by potency with the human enzyme; potency with mouse cGAS informs selection of an appropriate disease model for efficacy studies. Competition with ATP and GTP is assessed by comparing basal IC50 values to those in the presence of saturating ATP or GTP, and subsequently confirmed by measuring velocity vs. substrate at varying ATP or GTP levels. Inhibitor residence times (1/koff) are used as a key parameter for prioritizing compounds and driving SAR, because a longer residence time often results from an allosteric mechanism, and can also correlate with improved cellular activity. The cGAS enzymatic assay is used with the jump dilution method to measure residence times (inhibitor dissociation rates), as described for kinases using the very similar ADP assay. Biophysical methods, including SPR and TSA, are used as orthologous methods for residence time measurements and kd estimates.

[2] = molecular target: cGAS (Homo sapiens, UniProt Q8N884); assay: SPR / biophysical binding to cGAS; conditions: enzymatic analysis and SPR, TSA
cGAS, sequence (Q8N884 whole entry): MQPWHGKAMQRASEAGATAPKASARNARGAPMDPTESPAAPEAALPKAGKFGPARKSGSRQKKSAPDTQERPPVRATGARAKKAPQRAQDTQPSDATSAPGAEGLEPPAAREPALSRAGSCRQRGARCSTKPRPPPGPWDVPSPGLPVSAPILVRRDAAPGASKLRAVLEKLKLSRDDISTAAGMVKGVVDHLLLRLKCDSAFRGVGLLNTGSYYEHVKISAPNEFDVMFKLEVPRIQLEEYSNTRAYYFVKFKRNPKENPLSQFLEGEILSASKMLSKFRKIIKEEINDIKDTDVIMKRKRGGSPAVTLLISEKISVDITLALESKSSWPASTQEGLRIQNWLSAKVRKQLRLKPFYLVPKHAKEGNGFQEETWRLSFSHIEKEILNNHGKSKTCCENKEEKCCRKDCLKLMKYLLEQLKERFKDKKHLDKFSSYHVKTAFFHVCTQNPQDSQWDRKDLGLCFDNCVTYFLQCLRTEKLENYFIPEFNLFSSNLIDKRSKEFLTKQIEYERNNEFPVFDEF
Description: Following confirmation of hits at three concentrations and removal of compounds with visually evident reactivity or metabolic liabilities, non-stoichiometric inhibitors, aggregators, DNA intercalators and redox-active compounds were triaged (FIG. 2E) using established assays. […] Initial SAR based on more than 100 commercially available analogs provided additional confidence that the compounds were bonafide inhibitors, and informed potential scaffold hops and toleration for modifications.
A highly efficient platform for preclinical drug discovery (FIG. 3) was assembled, providing for development of cGAS inhibitors, which is improved by the addition of a powerful computational modeling method and in vivo PK studies (FIG. 3). […]
Biochemical and biophysical analysis: Potency and MOA studies, including Mn^2+ sensitivity, are performed using the cGAS enzymatic assay. […] Competition with ATP and GTP is assessed by comparing basal IC50 values to those in the presence of saturating ATP or GTP, and subsequently confirmed by measuring velocity vs. substrate at varying ATP or GTP levels. […]

[3] = Ksol (PBS, pH 7.4); format: physicochemical; conditions: pH 7.4, aqueous buffer, kinetic from dmso stock
[4] = Human microsomal stability (NADPH); format: in vitro ADME; conditions: liver microsomes, read-out: Human MS Stability (NADPH) t1/2
Method: (§1) ADME/PK: Compounds are tested in Caco-2 and MDR1-MDCK permeability assays to provide a measure of intestinal absorption, blood-brain-permeability and efflux by P-glycoprotein (P-gp), a frequent obstacle to effective CNS delivery. CNS drugs are associated with high passive membrane permeability (Papp>1×10^−6 cm/sec) and have low efflux ratios (Papp(B-A)/Papp(A-B)<2.5). Metabolic stability is tested using mouse and human liver microsomes incubated with NADPH for CYP-dependent metabolism and with UDPGA for glucuronidation. Compounds are tested for pharmacokinetics and brain penetration in mice using oral, intravenous and intraperitoneal administration.

[5] = Mouse microsomal stability (NADPH); format: in vitro ADME; conditions: liver microsomes, read-out: Mouse MS Stability (NADPH) t1/2
Method: as §1

[6] = tested on: MDCK-MDR (Madin-Darby Canine Kidney cells-Multi Drug Resistance pump); assay: MDCK-MDR permeability; format: in vitro ADME
Method: as §1

[7] = tested on: MDR1 (P-glycoprotein); assay: MDCK-MDR permeability; format: in vitro ADME, canine; conditions: dog, MDCK-MDR1
Method: as §1

[8] = tested on: Kinase, PDE, GTPase, ENPP1 (Abl1, PKA, TBK1, Rac1, PDE4A, ENPP1); assay: Selectivity panel of nucleotide-utilizing enzymes; format: biochemical
Method: Selectivity profiling: A panel of nucleotide-utilizing enzymes that included kinases (Abl1, PKA, TBK1—which transduces cGAS/STING signals, see FIG. 5A) a GTPase (Rac1), a phosphodiesterase (PDE4A), and ENPP1, a nucleotidase that degrades cGAMP, was used preliminarily. cGAS assays were used to perform dose response measurements with cGAS inhibitors. In addition to these enzymes, inhibitors are tested with three other members of the oligoadenylate synthases (OAS), nucleic acid sensors that activate innate immunity via production of short, 2′-5′ oligoadenylate second messengers. Methods for expression and purification of the human and/or porcine enzymes in E. coli or baculovirus-infected insect cells have been developed as well as a simple, absorbance-based assay using commercially available pyrophosphate kit. In addition, an FP-based assay (competitive displacement of a fluor-cGAMP tracer) is developed to test compounds as ligands for STING (which could be one explanation for the partial activity of Compound 15 in cells stimulated with cGAMP) (FIG. 5).

[9] = tested on: IRF3-driven Luc expression in THP-1 Dual cells; assay: THP-1 Dual IRF3-Luc reporter assay; format: cell-based, human
Method: (§2) IFN induction in human monocyte cell lines: The human monocyte cell line THP-1 gives a robust cGAS/STING-dependent type I IFN response and has been used extensively for studies on the pathway. Typically, cells are stimulated by transfection with dsDNA and gene expression is assessed using an ELISA for IFNβ, a reporter gene assay, and/or cGAS/STING pathway markers such as STING phosphorylation. These assays were validated using the TBK1 inhibitor, BX-795, which acts downstream of cGAS/STING, as a probe; THP-1 Dual cells (Invivogen, San Diego) are used as the reporter cell line for routine compound testing (FIG. 5A). These assays were optimized, including equalizing responses with transfected DNA and cGAMP and comparing responses between undifferentiated cells and cells that have been differentiated to macrophages (which show little difference). […] Stimulation of THP-1 Dual cells with damage-associated molecular pattern molecules (DAMPs) that act through pattern recognition receptors other than cGAS provides another way to confirm the specificity of putative cGAS inhibitors.

[10] = tested on: NFκB-driven SEAP expression in THP-1 Dual cells; assay: THP-1 Dual NFκB-SEAP reporter assay; format: cell-based, human; conditions: THP-1 Dual cells
Method: as §2

Mouse cGAS, sequence (Q8C6L5 whole entry): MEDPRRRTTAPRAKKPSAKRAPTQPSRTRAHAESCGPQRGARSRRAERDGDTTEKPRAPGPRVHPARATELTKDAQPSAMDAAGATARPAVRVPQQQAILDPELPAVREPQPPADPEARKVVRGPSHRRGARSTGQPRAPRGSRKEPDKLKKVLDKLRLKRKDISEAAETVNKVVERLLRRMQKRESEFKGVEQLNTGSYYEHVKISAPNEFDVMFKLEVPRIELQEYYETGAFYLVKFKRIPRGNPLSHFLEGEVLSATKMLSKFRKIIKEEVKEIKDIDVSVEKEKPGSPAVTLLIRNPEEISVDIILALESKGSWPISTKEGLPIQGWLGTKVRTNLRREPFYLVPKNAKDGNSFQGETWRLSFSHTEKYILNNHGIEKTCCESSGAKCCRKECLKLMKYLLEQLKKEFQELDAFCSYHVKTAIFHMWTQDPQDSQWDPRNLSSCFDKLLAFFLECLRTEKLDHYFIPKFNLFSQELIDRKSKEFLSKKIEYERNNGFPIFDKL

With `Cc1nc(N2CCC[C@H]2C(=O)O)c2oc3ccccc3c2n1` [Compound 15, (2-methylbenzofuro[3,2-d]pyrimidin-4-yl)-L-proline] the IC50 [1] was > 150 µM, the “binding stoichiometry to cGAS” value [2] was “Stoichiometric binding (1:1)” and the solubility kinetic [3] was 520 µM (≈ 155 µg/mL). The half-life [4] was > 2 h, the half-life [5] was > 2 h and the MDR-1-mediated export [6] was “no indication of MDR-1-mediated export”. For the same compound, the efflux ratio [7] was 0.4, the Papp A→B ([7]; A→B) was 9.8 ×10⁻⁶ cm/s and the “Off-Target Activity (Kinase, PDE, GTPase, ENPP1)” value [8] was “None”. For the same compound, the “inhibitory activity with a panel of nucleotide-utilizing enzymes” value ([8]; at 200 μM) was “lack of inhibitory activity”, the “inhibition of IRF3 (Luc)-driven transcription” value ([9]; THP-1 Dual cells) was 50-75% and the “inhibition in cGAMP-stimulated cells with cGAS present” value ([9]; cGAMP-stimulated THP-1 Dual cells) was “still caused inhibition, though to a lesser degree”. For the same compound, the cGAS-dependent cellular activity ([9]; human monocyte cell line THP-1) was “cGAS-dependent inhibition of type I IFN” and the “inhibition of NFκB (SEAP)-driven transcription” value [10] was 50-75%.

Source: patent publication US20220073532A1, “INHIBITORS OF CGAS ACTIVITY AS THERAPEUTIC AGENTS” (BELLBROOK LABS, LLC, priority 2019, published 2022)
